Tests used:
Assay type in all cases: in vivo, male C57BL/6 mice
CFA-injected mice [1] = assay: von Frey filaments test (mechanical allodynia) in CFA-induced chronic inflammatory pain; conditions: for Mechanical allodynia von Frey filaments strength / Mechanical allodynia, Experimental results (%) (maximal possible effect): ipsilateral paw; for Mechanical allodynia von Frey filaments strength: mean ± SEM, n=6; for reversal of the antiallodynic (antinociceptive) effects produced by 300 µg of JWH-015 / reversal of the antiallodynic effects produced by 150 µg of DPDPE: subplantar coadministration; for Mechanical allodynia, Experimental results (%) (maximal possible effect): CoPP 10 mg/kg intraperitoneal; for reversal of the antiallodynic effects produced by 150 µg of DPDPE: P < 0.001
Method: (§1) The experiments were performed in male C57BL/6 mice acquired from Harlan Laboratories (Barcelona, Spain). All mice weighing 21 to 25 g were housed under 12-h/12-h light/ dark conditions in a room with controlled temperature (22° C) and humidity (66%). Animals had free access to food and water and were used after a minimum of 7 days acclimatization to the housing conditions. All experiments were performed according with the Guide for the Care and Use of Laboratory Animals as adopted and promulgated by the U.S. National Institutes of Health and approved by the local Committee of Animal Use and Care of the Autonomous University of Barcelona. All efforts were made to minimize animal suffering and to reduce the number of animals used.
(§2) Chronic inflammatory pain was induced by the subplantar injection of 30 µl of CFA (Sigma) into the right hind paw under brief anesthetic conditions with isoflurane according to previous works (Leánez et al., Eur J Pharmacol, 2009, 602:41-49; Hervera et al., Naunyn Schmiedebergs Arch Pharmacol, 2009, 380:345-352). All experiments were performed at 10 days after CFA injection. At this time point, all of these animals developed a local inflammatory reaction, allodynia to mechanical stimuli and hyperalgesia to noxious thermal stimuli, as previously reported (Negrete et al., PLoS One, 2011, 6:e26688). The development of mechanical allodynia and thermal hyperalgesia was evaluated by using the von Frey filaments and plantar tests, respectively. All animals were tested in each paradigm before and at 10 days after CFA-injection.
Mechanical allodynia was quantified by measuring the hind paw withdrawal response to von Frey filament stimulation. In brief, animals were placed in methacrylate cylinders (20 cm high, 9 cm diameter; Servei Estació, Barcelona, Spain) with a wire grid bottom through which the von Frey filaments (North Coast Medical, Inc., San Jose, CA) with a bending force in the range of 0.008-3.5 g were applied by using a modified version of the up-down paradigm, as previously reported by Chaplan et al. (J Neurosci Methods, 1994, 53:55-63). The filament of 0.4 g was used first and the 3.0 g filament was used as a cut-off. Then, the strength of the next filament was decreased or increased according to the response. The threshold of response was calculated from the sequence of filament strength used during the up-down procedure by using an Excel program (Microsoft Iberia SRL, Barcelona, Spain) that includes curve fitting of the data. Clear paw withdrawal, shaking, or licking of the paw was considered as a nociceptive-like response. Both ipsilateral and contralateral hind paws were tested. Animals were allowed to habituate for 1 h before testing in order to allow an appropriate behavioral immobility.
In a first set of experiments, we assessed the expression of inflammatory pain induced by the subplantar administration of CFA as previously used (Leánez et al., Eur J Pharmacol, 2009, 602:41-49). After the habituation period, baseline responses were established in the following sequence: von Frey filaments and plantar test. After baseline measurements, inflammatory pain was induced and animals were again tested in each paradigm at day 10 after CFA injection by using the same sequence as for baseline responses. The contralateral paws were used as controls (n = 6 animals per group).
In a second set of experiments, we evaluated the mechanical antiallodynic and thermal antihyperalgesic effects of the subplantar administration of different doses of a specific DOR (DPDPE) or CB2R (JWH-015) agonist and their respective vehicles in the contralateral and ipsilateral paw of CFA-injected animals (n = 6 animals per group). […]

CFA-injected mice [2] = assay: plantar test (thermal hyperalgesia) in CFA-induced chronic inflammatory pain; conditions: for Thermal hyperalgesia Withdrawal latency: mean ± SEM, n=6; for reversal of the antihyperalgesic (antinociceptive) effects produced by 300 µg of JWH-015 / reversal of the antihyperalgesic effects produced by 150 µg of DPDPE: subplantar coadministration; for reversal of the antihyperalgesic effects produced by 150 µg of DPDPE: P < 0.001
Method: as §1, §2
Thermal hyperalgesia was assessed as previously reported by Hargreaves et al. (Pain, 1988, 32:77-88). Paw withdrawal latency in response to radiant heat was measured using the plantar test apparatus (Ugo Basile, Varese, Italy). Briefly, mice were placed in methacrylate cylinders (20 cm high x 9 cm diameter) positioned on a glass surface. The heat source was positioned under the plantar surface of the hind paw and activated with a light beam intensity, chosen in preliminary studies to give baseline latencies from 8 to 10 s in control mice. A cut-off time of 12 s was used to prevent tissue damage in absence of response. The mean paw withdrawal latencies from the ipsilateral and contralateral hind paws were determined from the average of three separate trials, taken at 5 min intervals to prevent thermal sensitization and behavioral disturbances. Animals were habituated to the environment for 1 h before the experiment to become quiet and to allow testing. […]
In another set of experiments, we evaluated the mechanical antiallodynic and thermal antihyperalgesic effects produced by the subplantar administration of 290 µg of SnPP alone or combined with the subplantar administration of a high dose of DPDPE (150 µg) or JWH-015 (300 µg) in the contralateral and ipsilateral paw of CFA-injected animals (n = 6 animals per group).
The reversibility of the antinociceptive effects produced by the subplantar administration of DPDPE (150 µg) or JWH-015 (300 µg), as doses that produce the maximal antiallodynic and antihyperalgesic effects after peripheral inflammation, by their subplantar coadministration with specific (naltrindole; 50 µg; AM630; 60 µg) and an unspecific peripheral opioid antagonist (naloxone methiodide, NX-ME; 50 µg) or a cannabinoid 1 receptor (CB1R) antagonist (AM251; 150 µg) (Hervera et al., J Pharmacol Exp Ther, 2010, 334: 887-896; Hervera et al., Mol Pain, 2011, 7:25) was also evaluated (n = 6 animals per group). The doses of all tested opioid and cannabinoid receptor antagonists were selected according to our previous data in animals with chronic pain (Hervera et al., Naunyn Schmiedebergs Arch Pharmacol, 2009, 380:345-352; Hervera et al., Psychopharmacology, 2013, 228:463-477; Negrete et al., PLoS One, 2011, 6:e26688).
CoPP and SnPP were dissolved in DMSO (1 % solution in saline). JWH-015, AM630, AM251 were dissolved in DMSO (50 % solution in saline). […]

CFA-injected mice [3] = assay: as above
Method: as §1
Chronic inflammatory pain was induced by the subplantar injection of 30 µl of CFA (Sigma) into the right hind paw under brief anesthetic conditions with isoflurane according to previous works (Leánez et al., Eur J Pharmacol, 2009, 602:41-49; Hervera et al., Naunyn Schmiedebergs Arch Pharmacol, 2009, 380:345-352). All experiments were performed at 10 days after CFA injection. […] The development of mechanical allodynia and thermal hyperalgesia was evaluated by using the von Frey filaments and plantar tests, respectively. […]
Thermal hyperalgesia was assessed as previously reported by Hargreaves et al. (Pain, 1988, 32:77-88). Paw withdrawal latency in response to radiant heat was measured using the plantar test apparatus (Ugo Basile, Varese, Italy). […] The mean paw withdrawal latencies from the ipsilateral and contralateral hind paws were determined from the average of three separate trials, taken at 5 min intervals to prevent thermal sensitization and behavioral disturbances. […]
In a first set of experiments, we assessed the expression of inflammatory pain induced by the subplantar administration of CFA as previously used (Leánez et al., Eur J Pharmacol, 2009, 602:41-49). […]

[4] = Table 7, CB2R agonist, subplantar JWH-015 300 µg, AM630 60 µg, AM251 150 µg, vehicle+vehicle 1.4 ± 0.1
[5] = Table 7, CB2R agonist, ipsilateral paw, subplantar JWH-015 300 µg, AM630 60 µg, AM251 150 µg, vehicle+vehicle 3.8 ± 0.3
[6] = Table 7, DOR agonist, subplantar DPDPE 150 µg, naltrindole 50 µg, NX-ME 50 µg, vehicle+vehicle 1.3 ± 0.1
[7] = Table 7, DOR agonist, ipsilateral paw, subplantar DPDPE 150 µg, naltrindole 50 µg, NX-ME 50 µg, vehicle+vehicle 3.4 ± 0.5

Compound: Cc1c(C(=O)NN2CCCCC2)nn(-c2ccc(Cl)cc2Cl)c1-c1ccc(I)cc1 [AM251, N-(piperidin-1-yl)-5-(4-iodophenyl)-1-(2,4-dichlorophenyl)-4-methyl-1 H-pyrazole-3-carboxamide]
- Mechanical allodynia von Frey filaments strength (CFA-injected mice [1]; [4]): 1.4 ± 0.1 g
- reversal of the antiallodynic (antinociceptive) effects produced by 300 µg of JWH-015 (CFA-injected mice [1]; AM630 60 µg, AM251 150 µg): unable to revert
- Thermal hyperalgesia Withdrawal latency (CFA-injected mice [2]; [5]): 3.6 ± 0.4 s
- reversal of the antihyperalgesic (antinociceptive) effects produced by 300 µg of JWH-015 (CFA-injected mice [2]; AM630 60 µg, AM251 150 µg): unable to revert

Compound: COc1ccc(C(=O)c2c(C)n(CCN3CCOCC3)c3cc(I)ccc23)cc1 [AM630]
- Mechanical allodynia von Frey filaments strength (CFA-injected mice [1]; [4]): 1.3 ± 0.1 g
- reversal of the antiallodynic (antinociceptive) effects produced by 300 µg of JWH-015 (CFA-injected mice [1]; AM630 60 µg, AM251 150 µg): completely reversed
- Thermal hyperalgesia Withdrawal latency (CFA-injected mice [2]; [5]): 3.7 ± 0.2 s
- reversal of the antihyperalgesic (antinociceptive) effects produced by 300 µg of JWH-015 (CFA-injected mice [2]; AM630 60 µg, AM251 150 µg): completely reversed

Compound: CCCn1c(C)c(C(=O)c2cccc3ccccc23)c2ccccc21 [JWH-015, (2-Methyl-1-propyl-1H-indol-3-yl)-1-naphthalenylmethanone]
- Mechanical allodynia, Experimental results (%) (maximal possible effect) (CFA-injected mice [1]; Table 6, JWH-015 30 µg subplantar, vehicle 4.1): 7.5%
- Mechanical allodynia von Frey filaments strength (CFA-injected mice [1]; [4]): 2.5 ± 0.2 g
- Thermal hyperalgesia, Experimental results (%) (maximal possible effect) (CFA-injected mice [2]; Table 6, ipsilateral paw, CoPP 10 mg/kg intraperitoneal, JWH-015 30 µg subplantar, vehicle 4.9): 7.4%
- Thermal hyperalgesia Withdrawal latency (CFA-injected mice [2]; [5]): 9.2 ± 0.2 s

Compound: C=CC[N+]1(C)CC[C@]23c4c5ccc(O)c4O[C@H]2C(=O)CC[C@@]3(O)[C@H]1C5 (some centres unmarked) [NX-ME, naloxone methiodide]
- Mechanical allodynia von Frey filaments strength (CFA-injected mice [1]; [6]): 1.2 ± 0.1 g
- reversal of the antiallodynic effects produced by 150 µg of DPDPE (CFA-injected mice [1]; naltrindole 50 µg, NX-ME 50 µg): completely reversed
- Thermal hyperalgesia Withdrawal latency (CFA-injected mice [2]; [7]): 3.6 ± 0.5 s
- reversal of the antihyperalgesic effects produced by 150 µg of DPDPE (CFA-injected mice [2]; naltrindole 50 µg, NX-ME 50 µg): completely reversed

Compound: Oc1ccc2c3c1O[C@H]1c4[nH]c5ccccc5c4C[C@@]4(O)[C@@H](C2)N(CC2CC2)CC[C@]314 [Naltrindole, naltrindole]
- Mechanical allodynia von Frey filaments strength (CFA-injected mice [1]; [6]): 1.3 ± 0.1 g
- reversal of the antiallodynic effects produced by 150 µg of DPDPE (CFA-injected mice [1]; naltrindole 50 µg, NX-ME 50 µg): completely reversed
- Thermal hyperalgesia Withdrawal latency (CFA-injected mice [2]; [7]): 3.4 ± 0.6 s
- reversal of the antihyperalgesic effects produced by 150 µg of DPDPE (CFA-injected mice [2]; naltrindole 50 µg, NX-ME 50 µg): completely reversed

Compound: C=Cc1c(C)c2cc3[nH]c(cc4nc(cc5nc(cc1[nH]2)C(C)=C5CCC(=O)[O-])C(CCC(=O)[O-])=C4C)c(C)c3C=C.[Cl-].[Cl-].[Sn+4] [SnPP, tin (IV) protoporphyrin IX dichloride]
- effect of SnPP coadministration on the local antiallodynic effects of DPDPE (CFA-injected mice [1]; SnPP 290 µg + DPDPE 150 µg subplantar, P < 0.001 (Fig. 5A)): significantly decreased
- effect of SnPP coadministration on the local antiallodynic effects of JWH-015 (CFA-injected mice [1]; SnPP 290 µg + JWH-015 300 µg subplantar, P < 0.001 (Fig. 5A)): significantly decreased
- mechanical allodynia induced by peripheral inflammation (CFA-injected mice [1]; SnPP alone 290 µg subplantar (Fig. 5A)): did not alter
- effect of SnPP coadministration on the local antihyperalgesic effects of DPDPE (CFA-injected mice [2]; SnPP 290 µg + DPDPE 150 µg subplantar, P < 0.001 (Fig. 5B)): significantly decreased
- effect of SnPP coadministration on the local antihyperalgesic effects of JWH-015 (CFA-injected mice [2]; SnPP 290 µg + JWH-015 300 µg subplantar, P < 0.001 (Fig. 5B)): significantly decreased
- thermal hyperalgesia induced by peripheral inflammation (CFA-injected mice [2]; SnPP alone 290 µg subplantar (Fig. 5B)): did not alter

Compound: [2-D-penicillamine,5-D-penicillamine]-enkephalin [DPDPE]
- Mechanical allodynia, Experimental results (%) (maximal possible effect) (CFA-injected mice [1]; Table 5, DPDPE 50 µg subplantar, vehicle 5.8): 11.8%
- Mechanical allodynia von Frey filaments strength (CFA-injected mice [1]; [6]): 2.4 ± 0.1 g
- mechanical allodynia induced by peripheral inflammation (CFA-injected mice [1]; subplantar administration, DPDPE 50-150 µg, JWH-015 30-300 µg (Fig. 1A, 2A)): dose-dependently inhibited
- Thermal hyperalgesia, Experimental results (%) (maximal possible effect) (CFA-injected mice [3]; Table 5, ipsilateral paw, CoPP 10 mg/kg intraperitoneal, DPDPE 50 µg subplantar, vehicle 4.0): 16.0%
- Thermal hyperalgesia Withdrawal latency (CFA-injected mice [3]; Table 7, DOR agonist, ipsilateral paw, subplantar DPDPE 150 µg, naltrindole 50 µg, NX-ME 50 µg, vehicle+vehicle 3.4 ± 0.5, mean ± SEM, n=6): 9.2 ± 0.7 s
- thermal hyperalgesia induced by peripheral inflammation (CFA-injected mice [3]; subplantar administration, DPDPE 50-150 µg, JWH-015 30-300 µg (Fig. 1B, 2B)): dose-dependently inhibited

From patent EP2992880A1, “Use of heme oxygenase 1 inducers and cannabinoid 2 receptor or delta-opioid receptor agonists in inflammatory pain” (Fundació Institut de Recerca de l'Hospital de la Santa Creu …, priority 2014, dated 2016)
